Measured values as given in patent publication US5702934A, “Processes for producing an enzyme” (priority 1993, dated 1997).
Where two headings read alike, the source gives them in different places.

What was measured:
[1] = biological target: T1, Fusarium oxysporum p45 proteolytic enzyme (p45 maturase, metalloprotease), SEQ ID NO:6 (Fusarium oxysporum, UniProt M1UZ70); assay type: biochemical
T1 construct: apparently native maturase from F. oxysporum; recombinant p45 also made in A. oryzae
Method: (§1) The tryptic activity is measured in microtiter plates; 100 μl samples are mixed with 100 μl of substrate (Stock: 87 mg/ml L-BAPNA (Sigma) in DMSO, diluted 50-fold in buffer) and the absorption at 405 nm is measured using a Thermomax microplate reader from Molecular Devices.
(§2) Metalloproteases contain a catalytic zinc metal center which participates in the hydrolysis of the peptide backbone. The active zinc center differentiates these proteases from calpains whose activities are dependent upon the presence of calcium. Confirmation of a protease as a metallo-protease is loss of proteolytic activity accomplished by removal of the zinc center with 1,10-phenanthroline (1 mM) followed by titration with Zn^2+ (0.1-100μM) to restore full activity.

[2] = biological target: T2, trypsin-like Fusarium oxysporum protease (F. oxysporum DSM 2672), SEQ ID NO: 2 (Fusarium oxysporum, UniProt P35049); assay: Tryptic activity (L-BAPNA) of the trypsin-like protease with or without 1,10-phenanthroline; assay type: biochemical
T2 construct: made in house; host or cells: Aspergillus oryzae IFO 4177 transformed with pSX183
Method: as §1, §2

[3] = biological target: pro-trypsin-like Fusarium oxysporum protease (recombinant proenzyme form of the trypsin-like F. oxysporum protease) (Fusarium oxysporum DSM 2672)

Compound: c1cnc2c(c1)ccc1cccnc12 [1,10-phenanthroline]
- Maturase activity upon addition of inhibitor (in words) ([1]; 1 mM 1,10-phenanthroline): halted
- Tryptic Activity (Δ Abs/min × 10^-4) released by p45 Maturase from pro-trypsin-like F. oxysporum protease ([1]; 1,10-phenanthroline 1 mM, no Zn2+, without inhibitor 54.0, proenzyme alone 1.26): 2.9 Δ Abs/min × 10^-4
- inhibition of the trypsin-like protease (in words) ([2]; 1,10-phenanthroline 1 mM): not inhibited
- Tryptic Activity (Δ Abs/min × 10^-4) ([2]; 1,10-phenanthroline 1 mM, no Zn2+, without inhibitor 34.0): 33.8 Δ Abs/min × 10^-4
- tryptic activity with inhibitor addition ([2]; 1,10-phenanthroline (1 mM), without inhibitor 34.0×10^-4): 33.8×10^-4 ΔAbs/min

Compound: p45 proteolytic enzyme (maturase) from Fusarium oxysporum
- Tryptic Activity (Δ Abs/min × 10^-4) released from the proenzyme, L-BAPNA assay [3]: 0.0054 Δ Abs/min

Compound: O=C(O)CN(CCN(CC(=O)O)CC(=O)O)CC(=O)O [EDTA]
- Maturase activity upon addition of inhibitor (in words) ([1]; EDTA 1 mM substituted for 1,10-phenanthroline): Analogous results
